In paper PMC11161644, “An effective and rapidly degradable disinfectant from disinfection byproducts” (Nature Communications, 2024):
Several values for one entry are separate records, joined by “and”; a condition that tells them apart may be missing. Identical values can stand only once.

Assays:
S. aureus (ATCC 25923) = assay: Inactivation of S. aureus (contact time 5 min); type: cell-based, Staphylococcus aureus; conditions: Staphylococcus aureus, ATCC25923, 5 min, pH 7.2, S. aureus; dose 300 mg L-1; pH 7.2; contact time 5 min; read-out: Log (N/N0)
Protocol: The chemicals and reagents used are detailed in Supplementary Note 1. The bacteria E. coli (ATCC 25922) and S. aureus (ATCC 25923) were cultured aerobically in Luria-Bertani broth (Sigma-Aldrich) and Tryptone Soya broth (Oxoid), respectively, at 37 °C for 16 h. The fungus C. albicans (ATCC 14053) was aerobically cultured in Sabouraud Dextrose broth (Difco) at 37 °C for 24 h. The microorganism cells were harvested by centrifugation at 1200×g (10 min, 4 °C) and resuspended in phosphate-buffered saline (PBS, 10 mM, pH 7.2). The disinfection experiments were performed in PBS solutions (10 mM, pH 7.2) with an initial concentration of E. coli, S. aureus, or C. albicans of 10^6‒10^7 cells per milliliter. A contact time of 5 min was used in accordance with the recommended time range of 0.25–10 min by USEPA for surface disinfection. Preliminary tests were conducted to determine the appropriate range of DBP doses. The appropriate dose range was established when the lowest and highest doses could achieve <1-log and >3-log of microbial inactivation, respectively. Based on the preliminary results, a series of doses of DBPs were added to the cell suspensions at room temperature (22 ± 1 °C). After the contact time of 5 min, the microorganism cells were enumerated following a membrane filter method. Briefly, serial 10-fold dilutions were conducted for the disinfected samples and the control sample without disinfection. Each diluted suspension was subjected to filtration through 0.45-μm membrane, which was then placed on a petri dish. The Petri dishes containing E. coli, S. aureus, and C. albicans were incubated in m-FC medium (Becton Dickinson & Co) at 45 °C for 24 h, in Tryptone Soya broth at 37 °C for 24 h and in Sabouraud Dextrose broth at 37 °C for 24 h, respectively. After incubation, the colony-forming units within a statistically reasonable range (20–80) were counted.

P. dumerilii embryos = assay: Developmental toxicity assay with P. dumerilii embryos, dilution factor of in-use concentration (EC50,DF), also after degradation in darkness; type: in vivo, Platynereis dumerilii
Excerpt: The DBP doses for 3-log E. coli reduction (pH 7.2) were set as the in-use concentrations, which were serially diluted and added to the P. dumerilii embryos at 12-h postfertilization. A dilution factor was defined as the ratio of the in-use concentration to the exposure concentration. Each exposure set contained a control sample (i.e., the embryos at 12-h postfertilization developed in seawater without the addition of DBPs). By 24-h postfertilization, normally developed embryos should have reached the first larval stage. An inverted stereomicroscope (×40 magnification) was used to observe the larvae. The normal development percentage was calculated as the ratio of normally developed embryos to total embryos. By plotting the curve of the normal development percentage versus the dilution factor, the EC50,DF value (i.e., the dilution factor corresponding to 50% of the normal development percentage of the control sample) was obtained using SigmaPlot 12. The developmental toxicity test was conducted in duplicate.

[1] = Degradation in seawater with simulated solar irradiation; conditions: for half-life at 10 mg L−1: pretreated seawater under simulated solar irradiation, pH 8.2; for Ln (C/C0): seawater pH 8.2, solar irradiation, 0 min
Protocol: The solar photolysis experiments were conducted in a chamber equipped with eight simulated sunlight full-spectrum lamps (BlueMax 5900, Full Spectrum Solutions). The temperature in the chamber was maintained at 20 °C. The total intensity of simulated sunlight was determined using a digital photometer (DT-1010B, Shenzhen Golden Octopus, China). Quartz flasks were positioned in the chamber where the total intensity of simulated sunlight was 4.79 ± 0.04 mW cm^−2 for each quartz flask. […] A DBP was added at 10 mg L^−1 to 50 mL pretreated seawater (pH 8.2) in the quartz flasks and exposed to the simulated solar irradiation for 0‒96 h. Every 8 h, the quartz flasks were rotated in and out of the chamber, and the sample volume was determined and adjusted with ultrapure water to account for any water evaporation. During the solar irradiation experiments, the sample was adjusted to pH 6.2 and 7.2 or maintained at pH 8.2 by adding 4 mM phosphate buffer (pH 6.2, 7.2, and 8.2, respectively).
(§1) For the DBP samples with and without sunlight, aliquots were taken at a specific reaction time. The sample aliquots were analyzed using Agilent high-performance liquid chromatography (HPLC) equipped with a Poroshell 120 EC-C18 column (4.6 × 150 mm, 4 µm particle size, Agilent) and a UV detector. The mobile phase, consisting of water (pre-adjusted to pH 2 with phosphoric acid) and acetonitrile at 50/50 (v/v), was applied at a flow rate of 1.0 mL min^−1. PCMX, 2,4-dihalophenols and 5-halosalicylic acids were detected at the wavelength of 230 nm. 2,5-Dihalohydroquinones and 2,6-DCQ were detected at the wavelength of 280 nm. All the degradation experiments were conducted in duplicate.

[2] = Degradation in seawater in darkness (pH 6.2, 7.2, 8.2); conditions: for half-life at 10 mg L−1: pretreated seawater in darkness; for Ln (C/C0): seawater pH 8.2, darkness, 0 min
Protocol: To study the DBP degradation in seawater in darkness, a DBP was added at 10 mg L^−1 to 50 mL pretreated seawater (pH 8.2) in the quartz flasks. The flasks were wrapped with aluminum foil to simulate the dark condition. The samples were kept at 20 °C in darkness for 0‒120 h, during which the sample was adjusted to pH 6.2 and 7.2 or maintained at pH 8.2 by adding 4 mM phosphate buffer (pH 6.2, 7.2, and 8.2, respectively).
as §1

[3] = pH 6.2, degradation time 15 min
[4] = pH 6.2, degradation time 30 min
[5] = pH 6.2, degradation time 60 min
[6] = pH 6.2, degradation time 90 min
[7] = pH 6.2, degradation time 120 min
[8] = pH 6.2, degradation time 180 min
[9] = pH 6.2, degradation time 240 min
[10] = pH 7.2, degradation time 15 min
[11] = pH 7.2, degradation time 30 min
[12] = pH 7.2, degradation time 45 min
[13] = pH 7.2, degradation time 60 min
[14] = pH 7.2, degradation time 90 min
[15] = pH 7.2, degradation time 120 min
[16] = pH 7.2, degradation time 180 min
[17] = pH 8.2, degradation time 12 min
[18] = pH 8.2, degradation time 16 min
[19] = pH 8.2, degradation time 20 min
[20] = pH 8.2, degradation time 25 min

Structure (SMILES) | log reduction at 300 µg/mL (S. aureus (ATCC 25923)) | half-life at 10 mg L−1 [1] | Ln (C/C0) [1] | Relative concentration remaining (1 at 0 min) ([2]; pH 6.2, degradation time 0 min) | Relative concentration remaining (1 at 0 min) [2, 3] | Relative concentration remaining (1 at 0 min) [2, 4] | Relative concentration remaining (1 at 0 min) [2, 5] | Relative concentration remaining (1 at 0 min) [2, 6] | Relative concentration remaining (1 at 0 min) [2, 7] | Relative concentration remaining (1 at 0 min) [2, 8] | Relative concentration remaining (1 at 0 min) [2, 9] | Relative concentration remaining (1 at 0 min) ([2]; pH 7.2, degradation time 0 min) | Relative concentration remaining (1 at 0 min) [2, 10] | Relative concentration remaining (1 at 0 min) [2, 11] | Relative concentration remaining (1 at 0 min) [2, 12] | Relative concentration remaining (1 at 0 min) [2, 13] | Relative concentration remaining (1 at 0 min) [2, 14] | Relative concentration remaining (1 at 0 min) [2, 15] | Relative concentration remaining (1 at 0 min) [2, 16] | Relative concentration remaining (1 at 0 min) ([2]; pH 8.2, degradation time 0 min) | further results
Oc1cc(I)c(O)cc1I [2,5-DIHQ, 2,5-diiodohydroquinone] | 0.792 | 9.6 min | 0 | 1 | 1.009 and 0.9751 | 1.028 and 0.9729 | 1.02 and 0.9831 | 0.9778 and 1.02 | 1 and 0.9297 | 0.9306 and 0.9617 | 0.9273 and 0.981 | 1 | 1.0017 and 0.9494 | 1.002 and 0.9365 | 0.934 and 0.9212 | 0.9213 and 0.886 | 0.8145 and 0.7791 | 0.7145 and 0.6664 | 0.5609 and 0.5354 | 1 | Normal development (%) (P. dumerilii embryos; dilution factor 86.0274): 0.8729% and 0%; Normal development (%) (P. dumerilii embryos; dilution factor 103.233): 7.707% and 3.405%; Normal development (%) (P. dumerilii embryos; dilution factor 129.041): 16.1617% and 11.8279%; Normal development (%) (P. dumerilii embryos; dilution factor 172.055): 46.0177% and 46.8181%; Normal development (%) (P. dumerilii embryos; dilution factor 258.082): 63.2599% and 58.9623%; Normal development (%) (P. dumerilii embryos; dilution factor 516.165): 88.6525% and 83.3333%; Relative concentration remaining (1 at 0 min) ([2]; pH 8.2, degradation time 3 min): 0.721 and 0.687; Relative concentration remaining (1 at 0 min) ([2]; pH 8.2, degradation time 8 min): 0.4796 and 0.4372; Relative concentration remaining (1 at 0 min) [2, 17]: 0.4155 and 0.3689; Relative concentration remaining (1 at 0 min) [2, 18]: 0.2998 and 0.2743; Relative concentration remaining (1 at 0 min) [2, 19]: 0.2215 and 0.1988; Relative concentration remaining (1 at 0 min) [2, 20]: 0.1592 and 0.1253; half-life at 10 mg L−1 ([2]; pH 8.2): 9.6 min; Ln (C/C0) [2]: 0
Oc1cc(Br)c(O)cc1Br [2,5-DBHQ, 2,5-dibromohydroquinone] | 0.62 | 9.6 min | 0 | 1 | 0.9903 and 1.013 | 1.0399 and 0.9876 | 1.018 and 0.9782 | 1.002 and 0.9911 | 0.974 and 0.967 | 0.9787 and 0.9462 | 0.9527 and 0.9358 | 1 | 1.006 and 0.9535 | 0.9742 and 0.9233 | 0.8634 and 0.8365 | 0.7743 and 0.7531 | 0.6443 and 0.5863 | 0.5356 and 0.4974 | 0.3959 and 0.345 | 1 | Normal development (%) (P. dumerilii embryos; dilution factor 366.306): 0%; Normal development (%) (P. dumerilii embryos; dilution factor 439.567): 8.76% and 2.206%; Normal development (%) (P. dumerilii embryos; dilution factor 549.459): 13.3508% and 11.7022%; Normal development (%) (P. dumerilii embryos; dilution factor 732.612): 55.6452% and 53.271%; Normal development (%) (P. dumerilii embryos; dilution factor 1098.92): 74.7747% and 73.7705%; Normal development (%) (P. dumerilii embryos; dilution factor 2197.84): 91.7072% and 82.9908%; Relative concentration remaining (1 at 0 min) ([2]; pH 8.2, degradation time 3 min): 0.7301 and 0.7188; Relative concentration remaining (1 at 0 min) ([2]; pH 8.2, degradation time 8 min): 0.5509 and 0.4986; Relative concentration remaining (1 at 0 min) [2, 17]: 0.3915 and 0.3688; Relative concentration remaining (1 at 0 min) [2, 18]: 0.2832 and 0.2676; Relative concentration remaining (1 at 0 min) [2, 19]: 0.2193 and 0.1797; Relative concentration remaining (1 at 0 min) [2, 20]: 0.1418 and 0.1248; half-life at 10 mg L−1 ([2]; pH 8.2): 9 min; Ln (C/C0) [2]: 0
